Data reported in patent publication US20100240630A1, “COMPOUNDS AND THERAPEUTIC USES THEREOF” (Myriad Pharmaceuticals, Inc.., priority 2007, published 2010).

Test system: HIV-1 laboratory strain, NL4-3
Test: MT-4 cytoprotection assay (WST-1 readout)
Type: cell-based
Settings: Human immunodeficiency virus 1, NL43, MT4, 96 h; MT-4 cells infected with HIV-1 NL4-3, MOI 0.0005, four days incubation; read-out: EC50, antiviral activity in the MT4 assay (most active compounds)
Experimental: The compounds of the invention can be tested in the following MT-4 assay to detect antiviral activity.
The HTLV-1 transformed T cell line, MT-4, is highly susceptible to HIV-1 infection. Anti-HIV-1 agents were evaluated in this target cell line by protection from the HIV-induced cytopathic effect. In this assay, viability of both HIV-1 and mock-infected cells was assessed in a colorimetric assay that monitors the ability of metabolically-active cells to reduce the tetrazolium salt WST-1. Cytoprotection by antiviral compounds is indicated by the positive readout of increased WST-1 cleavage.
Briefly, exponentially growing MT-4 cells were mock-infected or batch-infected with the HIV-1 laboratory strain, NL4-3, at a multiplicity of infection of 0.0005. Following a two hour infection, the cells were washed to remove unbound virus and plated in the presence of increasing concentrations of compound. After four days incubation, cytoprotection in the infected cells and compound toxicity in mock-infected cells were analyzed using the WST-1 assay.

Row | SMILES | EC50 [nM]
1 | C=C(C)[C@@H]1CC[C@]2(C#Cc3c(C)cccc3C(=O)O)CC[C@]3(C)C(CCC4[C@@]5(C)CC[C@H](OC(=O)CC(C)(C)C(=O)O)C(C)(C)C5CC[C@]43C)C12 (some centres unmarked) [Compound 22] | ≤ 100
2 | C=C(C)[C@@H]1CC[C@]2(C#CC3=C(C(=O)O)CCC3)CC[C@]3(C)C(CCC4[C@@]5(C)CC[C@H](OC(=O)CC(C)(C)C(=O)O)C(C)(C)C5CC[C@]43C)C12 (some centres unmarked) [Compound 41] | ≤ 100
3 | C=C(C)[C@@H]1CC[C@]2(C#Cc3sccc3C(=O)O)CC[C@]3(C)C(CCC4[C@@]5(C)CC[C@H](OC(=O)CC(C)(C)C(=O)O)C(C)(C)C5CC[C@]43C)C12 (some centres unmarked) [Compound 9] | ≤ 100
4 | C=C(C)[C@@H]1CC[C@]2(C#Cc3cc(C)ccc3C(=O)O)CC[C@]3(C)C(CCC4[C@@]5(C)CC[C@H](OC(=O)CC(C)(C)C(=O)O)C(C)(C)C5CC[C@]43C)C12 (some centres unmarked) [Compound 36] | ≤ 100
5 | C=C(C)[C@@H]1CC[C@]2(C#Cc3ccc(Cl)cc3C(=O)O)CC[C@]3(C)C(CCC4[C@@]5(C)CCC(OC(=O)CC(C)(C)C(=O)O)C(C)(C)C5CC[C@]43C)C12 (some centres unmarked) [Compound 35] | ≤ 100
6 | C=C(C)[C@@H]1CC[C@]2(CCc3ccccc3C(=O)O)CC[C@]3(C)C(CCC4[C@@]5(C)CC[C@H](OC(=O)CC(C)(C)C(=O)O)C(C)(C)C5CC[C@]43C)C12 (some centres unmarked) [Compound 28] | ≤ 100
7 | C=C(C)[C@@H]1CC[C@]2(C#Cc3cc(F)ccc3C(=O)O)CC[C@]3(C)C(CCC4[C@@]5(C)CC[C@H](OC(=O)CC(C)(C)C(=O)O)C(C)(C)C5CC[C@]43C)C12 (some centres unmarked) [Compound 13] | ≤ 100
8 | C=C(C)[C@@H]1CC[C@]2(C#Cc3ccccc3C(N)=O)CC[C@]3(C)C(CCC4[C@@]5(C)CC[C@H](OC(=O)CC(C)(C)C(=O)O)C(C)(C)C5CC[C@]43C)C12 (some centres unmarked) [Compound 27] | ≤ 100
9 | C=C(C)[C@@H]1CC[C@]2(C#Cc3ccccc3C(=O)N(C)C)CC[C@]3(C)C(CCC4[C@@]5(C)CC[C@H](OC(=O)CC(C)(C)C(=O)O)C(C)(C)C5CC[C@]43C)C12 (some centres unmarked) [Compound 30] | ≤ 100
10 | C=C(C)[C@@H]1CC[C@]2(C#CC3=C(C(=O)O)CCCC3)CC[C@]3(C)C(CCC4[C@@]5(C)CC[C@H](OC(=O)CC(C)(C)C(=O)O)C(C)(C)C5CC[C@]43C)C12 (some centres unmarked) [Compound 45] | ≤ 100
11 | C=C(C)[C@@H]1CC[C@]2(C#Cc3cccc(F)c3C(=O)O)CC[C@]3(C)C(CCC4[C@@]5(C)CC[C@H](OC(=O)CC(C)(C)C(=O)O)C(C)(C)C5CC[C@]43C)C12 (some centres unmarked) [Compound 20] | ≤ 100
12 | C=C(C)[C@@H]1CC[C@]2(C#Cc3ccc(OC)c(OC)c3C(=O)O)CC[C@]3(C)C(CCC4[C@@]5(C)CC[C@H](OC(=O)CC(C)(C)C(=O)O)C(C)(C)C5CC[C@]43C)C12 (some centres unmarked) [Compound 50] | ≤ 100
13 | C=C(C)[C@@H]1CC[C@]2(C#Cc3ccccc3C(=O)O)CC[C@]3(C)C(CCC4[C@@]5(C)CC[C@H](OC(=O)CC(C)(C)C(=O)O)C(C)(C)C5CC[C@]43C)C12 (stereo partly drawn) [Compound 6, 2,2-Dimethyl-succinic acid 4-[(1R,5aR,5bR,9S,11aR)-3a-(2-carboxy-phenylethynyl)-1-isopropenyl-5a,5b,8,8,11a-pentamethyl-icosahydro-cyclopenta[a]chrysen-9-yl]ester] | ≤ 100
14 | C=C(C)[C@@H]1CC[C@]2(C#Cc3ccncc3C(=O)O)CC[C@]3(C)C(CCC4[C@@]5(C)CC[C@H](OC(=O)CC(C)(C)C(=O)O)C(C)(C)C5CC[C@]43C)C12 (some centres unmarked) [Compound 54] | ≤ 100
15 | C=C(C)[C@@H]1CC[C@]2(C#CC3=C(C(=O)O)CN(C(=O)OC(C)(C)C)CC3)CC[C@]3(C)C(CCC4[C@@]5(C)CC[C@H](OC(=O)CC(C)(C)C(=O)O)C(C)(C)C5CC[C@]43C)C12 (some centres unmarked) [Compound 42] | ≤ 100
16 | C=C(C)[C@@H]1CC[C@]2(C#Cc3ccsc3C(=O)O)CC[C@]3(C)C(CCC4[C@@]5(C)CC[C@H](OC(=O)CC(C)(C)C(=O)O)C(C)(C)C5CC[C@]43C)C12 (some centres unmarked) [Compound 11] | ≤ 100
17 | C=C(C)[C@@H]1CC[C@]2(C#Cc3ccccc3S(C)(=O)=O)CC[C@]3(C)C(CCC4[C@@]5(C)CC[C@H](OC(=O)CC(C)(C)C(=O)O)C(C)(C)C5CC[C@]43C)C12 (some centres unmarked) [Compound 32] | ≤ 100
18 | C=C(C)[C@@H]1CC[C@]2(C#Cc3ccccc3C(=O)NS(C)(=O)=O)CC[C@]3(C)C(CCC4[C@@]5(C)CC[C@H](OC(=O)CC(C)(C)C(=O)O)C(C)(C)C5CC[C@]43C)C12 (some centres unmarked) [Compound 55] | ≤ 100
19 | C=C(C)[C@@H]1CC[C@]2(C#Cc3cccc(Cl)c3C(=O)O)CC[C@]3(C)C(CCC4[C@@]5(C)CC[C@H](OC(=O)CC(C)(C)C(=O)O)C(C)(C)C5CC[C@]43C)C12 (some centres unmarked) [Compound 51] | ≤ 100
20 | C=C(C)[C@@H]1CC[C@]2(C#Cc3ccsc3-c3nnn[nH]3)CC[C@]3(C)C(CCC4[C@@]5(C)CC[C@H](OC(=O)CC(C)(C)C(=O)O)C(C)(C)C5CC[C@]43C)C12 (some centres unmarked) [Compound 18] | ≤ 100
21 | C=C(C)[C@@H]1CC[C@]2(C#Cc3ccc(F)cc3C(=O)O)CC[C@]3(C)C(CCC4[C@@]5(C)CC[C@H](OC(=O)CC(C)(C)C(=O)O)C(C)(C)C5CC[C@]43C)C12 (some centres unmarked) [Compound 21] | ≤ 100
22 | C=C(C)[C@@H]1CC[C@]2(C#CC3=C(C(=O)O)CNCC3)CC[C@]3(C)C(CCC4[C@@]5(C)CC[C@H](OC(=O)CC(C)(C)C(=O)O)C(C)(C)C5CC[C@]43C)C12 (some centres unmarked) [Compound 43] | ≤ 100
23 | C=C(C)[C@@H]1CC[C@]2(C#Cc3cc(Cl)ccc3C(=O)O)CC[C@]3(C)C(CCC4[C@@]5(C)CC[C@H](OC(=O)CC(C)(C)C(=O)O)C(C)(C)C5CC[C@]43C)C12 (some centres unmarked) [Compound 34] | ≤ 100
